System: GluN1/GluN2A/GluN2B triheteromers
Test: TEVC on Xenopus oocytes, GluN1/GluN2A/GluN2B triheteromers
Type: cell-based, rat GluN1, rat GluN2A, mouse GluN2B
Settings: 1 µM trans-OptoNAM-3 (dark)
Excerpt: NMDARs exist as multiple subtypes in the brain that are formed by the combination of two GluN1 and either two identical (diheteromers) or different (triheteromers) GluN2 (GluN2A-D) subunits.[1] We assessed the selectivity of trans-OptoNAM-3 (dark PSS) for the other NMDAR subtypes.
We used cDNA coding for rat GluN1–1a (named GluN1 herein) (GenBank: U08261.1), rat GluN2A (GenBank: D13211.1), mouse GluN2B (GenBank: D10651.2), rat GluA1 flop (GenBank: M36418.2), and rat Myc-GluA2(Q)-flip (GenBank: AF164344.1) cloned into pcDNA3-based expression plasmids. GluK2 (GenBank: Z11548.1) corresponds to the fully RNA-edited version.[80] The GluN2B-ΔNTD construct is from ref[45] and GluN2B–N615K is from ref[81]. Single mutants GluN2B-Q110G and GluN1-L135H were from ref[19]. The GluA2 cDNA contains a Myc tag ([…]) fused between the signal peptide and the N-terminus sequences, and the GluA2 subunit is […] for its Q/R/N site (GluA2(Q)) to allow permeation of homomeric GluA2 receptors.[2] cDNAs coding for rat GluN2C (GenBank: M91563.1) and GluN2D subunits (GenBank: L31611.1) were in prK5 plasmids.
Expression of recombinant NMDA receptors was obtained by oocyte nuclear coinjection of 37 nL of a mixture of cDNAs (at 30 ng/μL) coding for GluN1–1a and various GluN2 subunits (ratio 1:1). The protocol in ref[43] was followed for the expression of GluN1/GluN2A/GluN2B triheteromers. […]

Compound: c1ccc(/N=N/c2ccc(CCNc3ccncc3)cc2)cc1 [OptoNAM-3, (E)-N-(4-(Phenyldiazenyl)phenethyl)pyridin-4-amine]
- inhibition of GluN1/GluN2A/GluN2B triheteromers: 11.404%
- inhibition of GluN1/GluN2A/GluN2B triheteromers (listed as trans-OptoNAM-3): 11.4% ± 0.9%

From paper PMC11413854, “Reversible Control of Native GluN2B-Containing NMDA Receptors with Visible Light” (ACS Chemical Neuroscience, 2024)
